Target: ROCK2 (human) (UniProt O75116)
Experiment: Inhibition of ROCK2 Kinase Activity

Chain of ROCK2 (human) (O75116 whole entry, looked up): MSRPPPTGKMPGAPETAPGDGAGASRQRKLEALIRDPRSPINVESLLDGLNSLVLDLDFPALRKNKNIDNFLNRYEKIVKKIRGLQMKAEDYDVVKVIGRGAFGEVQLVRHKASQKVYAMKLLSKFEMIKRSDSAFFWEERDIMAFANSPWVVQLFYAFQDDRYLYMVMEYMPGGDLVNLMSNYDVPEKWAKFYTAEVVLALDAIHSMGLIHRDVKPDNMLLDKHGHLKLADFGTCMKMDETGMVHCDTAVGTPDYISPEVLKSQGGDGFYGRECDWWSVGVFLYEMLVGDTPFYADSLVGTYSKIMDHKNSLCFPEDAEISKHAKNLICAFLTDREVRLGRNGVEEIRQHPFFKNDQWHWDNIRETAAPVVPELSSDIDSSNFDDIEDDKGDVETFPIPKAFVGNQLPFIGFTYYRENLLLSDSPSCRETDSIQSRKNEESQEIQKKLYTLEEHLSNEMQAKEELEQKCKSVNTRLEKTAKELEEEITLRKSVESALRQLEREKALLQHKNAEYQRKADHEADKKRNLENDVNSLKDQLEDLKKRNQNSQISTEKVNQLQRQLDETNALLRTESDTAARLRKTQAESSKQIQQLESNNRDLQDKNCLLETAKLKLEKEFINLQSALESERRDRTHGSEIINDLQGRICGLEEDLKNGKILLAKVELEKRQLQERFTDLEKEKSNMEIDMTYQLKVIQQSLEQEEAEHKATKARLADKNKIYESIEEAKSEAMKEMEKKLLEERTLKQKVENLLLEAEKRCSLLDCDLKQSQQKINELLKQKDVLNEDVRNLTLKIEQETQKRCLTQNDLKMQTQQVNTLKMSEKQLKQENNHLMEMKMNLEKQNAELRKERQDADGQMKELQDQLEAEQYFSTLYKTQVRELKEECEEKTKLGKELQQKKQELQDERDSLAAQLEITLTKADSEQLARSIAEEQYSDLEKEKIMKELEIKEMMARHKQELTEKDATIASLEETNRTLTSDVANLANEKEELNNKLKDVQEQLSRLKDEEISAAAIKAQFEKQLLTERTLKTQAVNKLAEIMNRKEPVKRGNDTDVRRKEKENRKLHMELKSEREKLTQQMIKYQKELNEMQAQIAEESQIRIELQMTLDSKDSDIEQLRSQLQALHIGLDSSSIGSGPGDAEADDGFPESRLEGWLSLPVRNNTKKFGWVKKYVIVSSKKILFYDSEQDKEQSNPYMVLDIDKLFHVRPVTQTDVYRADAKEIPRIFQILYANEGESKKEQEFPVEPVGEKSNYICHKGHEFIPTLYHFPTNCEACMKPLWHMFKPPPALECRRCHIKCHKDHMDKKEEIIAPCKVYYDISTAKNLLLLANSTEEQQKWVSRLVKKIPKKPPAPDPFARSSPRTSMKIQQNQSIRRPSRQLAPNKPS

COc1cccc(CN(CCN(C)C)C(=O)Nc2nc3ccc(-c4cn[nH]c4)cc3s2)c1
IC50: 8 nM

COc1ccc2c(c1)CC(c1nc3ccc(-c4ccncc4)cc3o1)CO2 (centres undefined)
IC50: 6 nM

COc1cccc(CN(CCO)C(=O)c2nc3ccc(-c4cn[nH]c4)cc3s2)c1
IC50: 7 nM

CN(C)CCN(Cc1ccccc1)C(=O)c1nc2ccc(-c3cn[nH]c3)cc2s1
IC50: 2 nM

COc1ccc2c(c1)CC(c1nc3cc(-c4ccnc5[nH]ccc45)ccc3o1)CO2 (centres undefined)
IC50: 518 nM

COc1cccc(CNC(=O)c2nc3ccc(-c4cn[nH]c4)cc3s2)c1
IC50: 21 nM

COc1ccc2c(c1)CC(c1nc3cc(-c4ccnc(N)n4)ccc3o1)CO2 (centres undefined)
IC50: 933 nM

Nc1cc(-c2ccc3nc(C4COc5ccccc5C4)oc3c2)ccn1 (centres undefined)
IC50: 36 nM

CN(C)CCNC(=O)c1cccc(CN(C(=O)c2nc3ccc(-c4cn[nH]c4)cc3s2)C2CC2)c1
IC50: 35 nM

CN(C)CCCNC(=O)c1ccc2c(c1)CC(c1nc3ccc(-c4cn[nH]c4)cc3s1)CO2 (centres undefined)
IC50: 0.87 nM

COc1ccc2c(c1)CC(c1nc3ccc(-c4ccnc(N)c4)cc3o1)CO2 (centres undefined)
IC50: 8 nM

Fc1ccc2c(c1)CC(c1nc3ccc(-c4cn[nH]c4)cc3o1)CO2 (centres undefined)
IC50: 30 nM

Nc1cc(-c2ccc3nc(C4COc5ccc(F)cc5C4)oc3c2)ccn1 (centres undefined)
IC50: 18 nM

Cc1n[nH]cc1-c1ccc2nc(C3COc4ccc(F)cc4C3)oc2c1 (centres undefined)
IC50: 9 nM

COc1cccc(CN(CCN2CCCC2)C(=O)c2nc3ccc(-c4cn[nH]c4)cc3s2)c1
IC50: 43 nM

c1ccc2c(c1)OCC(c1nc3ccc(-c4cn[nH]c4)cc3s1)O2 (centres undefined)
IC50: 17 nM

c1ccc(CCc2nc3ccc(-c4cn[nH]c4)cc3s2)cc1
IC50: 40 nM

O=C(Nc1nc2ccc(-c3cn[nH]c3)cc2s1)C1COc2ccc(F)cc2C1 (centres undefined)
IC50: 22 nM

COc1cccc(C(=O)Nc2nc3ccc(-c4ccncc4)cc3s2)c1
IC50: 1930 nM

NCCC(=O)N1CC(C(=O)Nc2nc3ccc(-c4cn[nH]c4)cc3s2)CC1c1ccccc1 (centres undefined)
IC50: 29 nM

COc1ccc2c(c1)CC(c1nc3ccc(-c4c[nH]nc4C)cc3o1)CO2 (centres undefined)
IC50: 16 nM

COc1cccc(OCc2nc3ccc(-c4cn[nH]c4)cc3s2)c1
IC50: 42 nM

O=C(Nc1nc2ccc(-c3cn[nH]c3)cc2s1)C1COc2ccccc2C1 (centres undefined)
IC50: 14 nM

COc1ccc(CNc2nc3ccc(-c4ccncc4)cc3s2)cc1
IC50: 5000 nM

COc1ccc2c(c1)CC(c1nc3cc(-c4cn[nH]c4)ccc3o1)CO2 (centres undefined)
IC50: 219 nM

CN(C)CCN(Cc1cccc(F)c1)C(=O)c1nc2ccc(-c3cn[nH]c3)cc2s1
IC50: 1 nM

Nc1nccc(-c2ccc3nc(C4COc5ccc(F)cc5C4)sc3c2)n1 (centres undefined)
IC50: 23 nM

c1ccc(OCc2nc3ccc(-c4cn[nH]c4)cc3s2)cc1
IC50: 44 nM

COc1ccc2c(c1)CC(c1nc3cc(-c4ccncc4)cnc3s1)CO2 (centres undefined)
IC50: 579 nM

COc1ccc2c(c1)CC(c1nc3ccc(-c4cn[nH]c4)cc3o1)CO2 (centres undefined)
IC50: 1.5 nM

O=C(Nc1nc2ccc(-c3cn[nH]c3)cc2s1)[C@H]1CNC[C@@H]1c1ccccc1
IC50: 50 nM

COc1cccc(CN(CCCN(C)C)C(=O)c2nc3ccc(-c4cn[nH]c4)cc3s2)c1
IC50: 4.3 nM

Nc1nccc(-c2ccc3nc(C4COc5ccccc5O4)oc3c2)n1 (centres undefined)
IC50: 21 nM

NCC(=O)N1C[C@H](C(=O)Nc2nc3ccc(-c4cn[nH]c4)cc3s2)[C@@H](c2ccccc2)C1
IC50: 37 nM

From the Kinase Knowledgebase extract (Sharma et al. 2016)
